# Test results: publication PMC11249646, “Small-Molecule Disruptors of the Interaction between Calcium- and Integrin-Binding Protein 1 and Integrin αIIbβ3 as Novel Antiplatelet Agents” (ACS Pharmacology & Translational Science, 2024)
# pIC50: −log10 of the molar value. Read-outs that look alike come from different tables or passages of the source. Where a SMILES comes first, the peptide text is derived from it. The star is where a group is joined. Cbz = O=C(OCc1ccccc1)*; CH2Cl = ClC*
# Target: T1, CIB1 and αIIb interaction (CIB1-GST : F-αIIb peptide) (Homo sapiens, UniProt Q99828)
# T1 construct: made in house; host or cells: BL-21 plus RIL cells (E. coli)
# T1 sequence (Q99828 1-191): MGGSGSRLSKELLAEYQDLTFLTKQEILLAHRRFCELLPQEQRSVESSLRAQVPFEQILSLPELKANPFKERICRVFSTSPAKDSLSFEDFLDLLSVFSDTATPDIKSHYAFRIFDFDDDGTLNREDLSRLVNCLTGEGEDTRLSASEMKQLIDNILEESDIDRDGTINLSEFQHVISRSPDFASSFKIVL
# Experiment: FP assay, 1536-well qHTS format (primary and confirmatory screen)
# Type: binding
# Conditions: for Efficacy (%): negative = inhibition; for Curve Class: negative sign = inhibitory curve; for pIC50: read-out: IC50
# [1] = qHTS primary screen of LOPAC/NPACT libraries
# [2] = qHTS primary screen hits, Table S2
# [3] = qHTS primary screen hits, Table S2, several classes where COUNT > 1
SMILES,Efficacy (%) [2] [%],pIC50 [2],Curve Class [3],further results
CCCCCCC/C=C\CCCCCCCCC(=O)O [NCGC00015764-04],,,,Efficacy (%) [1]: -27%; Curve Class [1]: -2.4; pIC50 [1]: 4.50
CC(C)C[C@H](NC(=O)CNC(=O)OCc1ccccc1)C(=O)N[C@@H](Cc1ccccc1)C(=O)CCl [NCGC00485375-01] (Cbz-Gly-Leu-Phe-CH2Cl),,,,Efficacy (%) [1]: -24%; Curve Class [1]: -2.4; pIC50 [1]: 4.65
C/C(=C\c1ccc(C(=O)O)cc1)c1ccc2c(c1)C(C)(C)CCC2(C)C [NCGC00016015-10],,,,Efficacy (%) [1]: -10%; Curve Class [1]: -1.4; pIC50 [1]: 4.40
Cc1ccc(-n2nc(C(C)(C)C)cc2NC(=O)Nc2ccc(OCCN3CCOCC3)c3ccccc23)cc1 [NCGC00241104-02],-32,4.35,-2.4,
CCOc1ccc(-c2cc(NC(=O)c3c(F)cccc3F)c(C(=O)O)s2)cc1 [NCGC00386875-01],,,,Efficacy (%) [1]: -21%; Curve Class [1]: -1.4; pIC50 [1]: 4.85
COc1cc(SC)ccc1C(=O)N1CCC(Cc2ccccc2)CC1 [NCGC00167816-02],,,,Efficacy (%) [1]: -11%; Curve Class [1]: -1.4; pIC50 [1]: 5.49
O=C1Cc2c([nH]c3ccc(Br)cc23)-c2ccccc2N1 [NCGC00015582-06],,,,Efficacy (%) [1]: -19%; Curve Class [1]: -1.4; pIC50 [1]: 4.70
NS(=O)(=O)c1ccc(NCc2cn(-c3nc(C(=O)O)cs3)nc2-c2ccccc2)cc1.O=C(O)C(F)(F)F [NCGC00357525-01],-25,4.25,-2.4,
Cc1ccc(NS(=O)(=O)c2ccc3[nH]c(=O)[nH]c3c2)cc1C.O=C(O)C(F)(F)F [NCGC00187759-01],-68,5.40,,Curve Class [2]: -2.4
Nc1ccc2nc3c(=O)n(CCc4ccccc4)c(=O)[nH]c3nc2c1.O=C(O)C(F)(F)F [NCGC00356558-01],-62,5.30,-1.2,
C=CC(=O)Nc1cccc(Oc2nc(Nc3ccc(N4CCN(C)CC4)cc3)ncc2Cl)c1 [NCGC00346496-04],,,,Efficacy (%) [1]: -28%; Curve Class [1]: -2.4; pIC50 [1]: 4.35
COc1cccc2nc3c(C(=O)NCCN(C)C)cccc3cc12.O=C(O)C(F)(F)F [NCGC00371843-01],-37,4.30,-2.4,
O=C(O)CC1(O)C(=O)Nc2ccccc21 (centres unmarked) [NCGC00385842-01],,,,Efficacy (%) [1]: -28%; Curve Class [1]: -2.4; pIC50 [1]: 4.25
CC[C@@]1(O)C(=O)OCc2c1cc1n(c2=O)Cc2cc3c(CN(C)C)c(O)ccc3nc2-1 [NCGC00014925-07],-147,4.61,,
Cc1ccc(-c2c(C(=O)CCl)n(CCCO)c3ncnc(N)c23)cc1 [NCGC00485901-01],,,,Efficacy (%) [1]: -25%; Curve Class [1]: -1.4; pIC50 [1]: 5.46
CN1CCc2ccccc2Cc2[nH]c3ccccc3c2CC1 [NCGC00015614-05],,,,Efficacy (%) [1]: -28%; Curve Class [1]: -2.4; pIC50 [1]: 4.50
COc1ccc(-c2csc(NC(=O)c3ccncc3NS(=O)(=O)c3ccc(C)cc3)n2)cc1.O=C(O)C(F)(F)F [NCGC00319009-01],-53,4.25,-2.4,
Cn1c(=O)c2[nH]c(-c3ccc(S(=O)(=O)O)cc3)nc2n(C)c1=O [NCGC00015000-05],,,,Efficacy (%) [1]: -28%; Curve Class [1]: -2.2; pIC50 [1]: 4.30
Cc1ccc(C)n1-c1cccc(C(=O)O)c1.O=C(O)C(F)(F)F [NCGC00060597-04],,,,"Efficacy (%) (qHTS FP screen hits, Table S2): -32%; pIC50 (qHTS FP screen hits, Table S2): 4.49"
CN(C)CCCNC(=O)c1ccc(-c2cc(O)c3ncccc3c2)cc1 [NCGC00183808-07],-38,4.52,,
O=C(O)C(F)(F)F.O=C1CCCC2=C1C(c1n[nH]cc1Cl)NC(Nc1nc3ccccc3o1)=N2 (centres unmarked) [NCGC00242659-02],-31,4.50,-2.4,
N[C@@H](CCC(=O)N[C@H](CSN=O)C(=O)NCC(=O)O)C(=O)O [NCGC00094150-03],,,,Efficacy (%) [1]: -13%; Curve Class [1]: -1.2; pIC50 [1]: 4.90
COc1cccc(-c2csc(NC(=O)c3ccncc3NS(=O)(=O)c3ccc(C)cc3)n2)c1.O=C(O)C(F)(F)F [NCGC00319006-01],-58,4.32,-2.2,
Cc1c(OCC(F)(F)F)ccnc1C[S+]([O-])c1nc2ccccc2[nH]1 (centres unmarked) [NCGC00015615-15],-26,4.30,,Curve Class [2]: -2.4
O=C(O)C(F)(F)F.O=C1CC(c2ccccc2Br)c2sc(N3CCOCC3)nc2N1 (centres unmarked) [NCGC00488255-02],-54,4.10,-2.4,
Cc1ccnc(NC(=S)N2CCN(c3cccc(C(F)(F)F)c3)CC2)n1.O=C(O)C(F)(F)F [NCGC00242308-01],-41,4.10,-2.2,
O=C(O)C(F)(F)F.OCc1ccc(-c2ccc3ncnc(NCCc4c[nH]cn4)c3c2)o1 [NCGC00188669-01],-40,4.35,-2.4,
Cc1ccc(S(=O)(=O)Nc2ccc(O)c3ccccc23)c(C)c1.O=C(O)C(F)(F)F [NCGC00273983-01],-34,4.25,-2.4,

# The next lines start with results.
Efficacy (%) [2] [%],pIC50 [2],SMILES,Curve Class [3],further results
-29,4.30,Cc1ccc(S(=O)(=O)Nc2cc(S(=O)(=O)c3ccc(C)cc3)c(O)c3cccnc23)cc1 [NCGC00161699-01],-2.4,
-28,4.30,O=C1CCC(N2C(=O)c3ccccc3C2=O)C(=O)N1 (centres unmarked) [NCGC00015989-17],-2.4,
-41,,Oc1c(Br)cc(Br)c2cccnc12 [NCGC00094815-05],-2.2,
-66,4.65,COc1ccc(C(=O)O[C@H]2C=COC=C3C=C4C(=O)N(C)C(=S)C(=O)N4[C@@H]32)cc1Oc1cc(C=O)ccc1O [NCGC00384899-01],,Curve Class [2]: -2.2
-28,4.58,O=C([O-])CCNc1cc(N2CCc3ccccc3CC2)nc(-c2ccccn2)n1.[Na+] [NCGC00390406-01],,Curve Class [2]: -2.4
-33,4.40,Nc1ccc(-c2nc3ccc(-c4nc5cc(N)ccc5[nH]4)cc3[nH]2)cc1 [NCGC00094031-06],-2.2,
-41,4.35,CCCCC1(C2CCCC2)Cc2cc(OCC(=O)O)c(Cl)c(Cl)c2C1=O (stereo in doubt) [NCGC00093872-03],,Curve Class [2]: -2.2
-50,4.30,Cc1c(Cl)cccc1-n1c(CCC(=O)O)ccc1-c1cccs1 [NCGC00100415-03],-2.2,
-18,4.30,O=C1CCCC2=C1C(c1n[nH]cc1Br)N=C(Nc1nc3ccccc3o1)N2 (centres unmarked) [NCGC00229723-01],,Curve Class [2]: -2.4
-21,4.35,O=C(O)c1ccc(S(=O)(=O)N[C@@H](Cc2ccc(O)cc2)C(=O)O)cc1 [NCGC00161808-01],-2.4,
-29,4.25,CCOC(=O)c1csc(-n2nc(-c3ccc(F)c(F)c3)cc2O)n1 [NCGC00356457-01],,Curve Class [2]: -2.4
-45,4.05,CCCCCCCCCCCCCCCC[N+](C)(C)CC.[Br-] [NCGC00166120-02],-3,
-60,4.25,CN1CCN(CCC(=O)N2c3ccccc3Sc3ccc(C(F)(F)F)cc32)CC1.Cl [NCGC00160483-02],-2.4,
-23,4.10,O=S1(=O)N=C(Oc2ccccc2)c2ccccc21 [NCGC00079022-02],-2.4,
